Measured values from patent US20090170893A1, “NOVEL HYDRATE FORM” (priority 2006, published 2009).

Assay: storage stability of the solid form (polymorphic conversion)
Format: physicochemical

## COc1c(N2C[C@@H]3CCCN[C@@H]3C2)c(F)cc2c(=O)c(C(=O)O)cn(C3CC3)c12.Cl [Example 1, 1-cyclopropyl-7-([S,S]-2,8-diazabicyclo-[4.3.0]non-8-yl)-6-fluoro-1,4-dihydro-8-methoxy-4-oxo-3-quinolinecarboxylic acid]
Prolonged storage over 3 weeks at ambient conditions
  stability / polymorphic conversion on prolonged storage: stable and exhibit no polymorphic conversion
Prolonged storage over 3 weeks at high humidity accelerated conditions
  stability / polymorphic conversion on prolonged storage: stable and exhibit no polymorphic conversion
